Entries after “also recorded” stand apart in the source; their conditions may differ.
Tests used:
[1] = 6-18 grams/day/adult or 86-257 mg/Kg/day; reference [21]; cited from earlier work
[2] = Pilot in vivo studies; conditions: data not shown
[3] = system: Aβ; conditions: reference [11]; cited from earlier work
[4] = system: neurons; conditions: cited from earlier work
[5] = system: TgCRND8 mice; test: Open field test for motor activity; assay type: in vivo, mouse; conditions: TgCRND8 mice and non-Tg littermates; drinking water 10 mg/ml, extended treatment
Description: (§1) Behavioural tests: Morris Water Maze testing was performed as previously described. After non-spatial pre-training, mice underwent place discrimination training for 5 days with 4-trials per day, followed by a cued visible platform to rule out general motivational, learning deficits and motor problems, and a probe trial to evaluate memory. […] Open field test for motor activity was preformed as described previously. Duration of walking, pausing and grooming were analyzed as indices of spontaneous locomotor activity. Sensorimotor function was examined with an Economex™ accelerating rotarod (Columbus Instruments, Columbus, Ohio), as described elsewhere. The rod was set to accelerate at a rate of 0.2 r.p.m./s, from an initial, constant speed of 5 r.p.m. Latency to fall was recorded in four daily trials, conducted at 30 min intervals. All mice were trained for seven days before testing. The test day performance score for each animal was obtained by summing its latency to fall over the four trials
(§2) Behavioural tests: Behavioural analyses were performed using the Morris Water Maze test (13, 14). […] Duration of walking, pausing, rearing and grooming were analyzed as indices of spontaneous locomotor activity.

[6] = system: TgCRND8 mice; test: Survival census (Kaplan-Meier); assay type: in vivo, mouse; conditions: for Kaplan Meier cumulative survival: compared to untreated TgCRND8 mice
Description: (§3) Survival Census: The probability of survival was assessed by the Kaplan-Meier technique, computing the probability of survival at every occurrence of death, thus making it suitable for small sample sizes. For the analyses of survival, 35 mice were used for each treatment group. The Tarone-Ware test was used to assess effects of treatments.
as §3, with “technique” for “technique,”, “30” for “35”

[7] = Hematology and serum biochemical analyses; assay type: in vivo, mouse
Source text: Blood was collected prior to sacrifice and samples were sent to VITA-TECH laboratories (Markham, ON, Canada) for analyses. Reference values were obtained from Zhou and Hansson.

[8] = mouse, in vivo
Description: Mice. […] This initial dosage was chosen based upon the dosage of myo-cyclohexanehexol (6-18 grams/day/adult or 86-257 mg/Kg/day) that is typically administered to human patients for various psychiatric disorders. […] A cohort of animals (n=10 mice per treatment arm) entered the study at five months of age, and outcomes were then analyzed after one month of treatment. The body weight, coat characteristics and in cage behaviour were monitored. Mannitol was used as a negative control for potential alterations in caloric intake. All experiments were performed according to the Canadian Council on Animal Care guidelines.
Mice. […] Cohorts of animals entered the study at 5 months of age and outcomes were analyzed after one month. Alternatively, cohorts of animals entered the prophylactic study at 6 weeks of age and outcome measures were analysed at 6-months of age. The body weight, coat characteristics and in cage behaviour was monitored. All experiments were performed according to the Canadian Council on Animal Care guidelines.

[9] = system: TgCRND8 mice; test: Synaptophysin quantification by western blotting (hippocampus); assay type: in vivo, mouse
Description: Synaptophysin protein levels were determined in treated and control mice by western blotting. Sections were immunoblotted for synaptophysin with anti-synaptophysin IgG (1:40; Roche, Laval, PQ) or GAPDH IgG (1: 10,000; Biodesign International) as a loading control. Films were scanned before analyses using NIH Image analyses combined with densitometry. Synaptophysin values were normalized to the loading control for each sample. Statistical analyses were determined using factorial ANOVA with Fishers PLSD as a post-hoc test.

[10] = system: TgCRND8 mice; test: Cued visible platform test (Morris Water Maze); assay type: in vivo, mouse; conditions: one month treatment from 5 months of age
Description: as §1, §2

[11] = system: TgCRND8 mice; test: Morris Water Maze spatial reference memory test; assay type: in vivo, mouse; conditions: for spatial memory / cognition compared to untreated TgCRND8 mice / spatial memory compared to non-Tg littermates: one month treatment from 5 months of age; for effect on non-Tg littermate performance: one month treatment
Description: as §1
Behavioural tests: Behavioural analyses were performed using the Morris Water Maze test (13, 14). After pre-spatial training, mice underwent place discrimination training for 5 days with 4 trials per day, followed by a cued visible platform to rule out general motivational, learning deficits and motor problems. […] Open field test for motor activity was performed as described previously. Duration of walking, pausing, rearing and grooming were analyzed as indices of spontaneous locomotor activity.

[12] = biological target: T1, Aβ40 (Homo sapiens, UniProt P05067); test: Cerebral Aβ content: brain Aβ40 (ELISA kit); assay type: in vivo, mouse; conditions: TgCRND8 mice with pre-existing disease; 28 day treatment from 5 months of age
T1 construct: from tissue; host or cells: hemi-brain homogenate of TgCRND8 transgenic mice
T1 sequence (P05067 672-711): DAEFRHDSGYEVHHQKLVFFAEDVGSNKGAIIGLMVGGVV
Description: (§4) Plasma and Cerebral Aβ Content. Hemi-brain samples were homogenized in a buffered sucrose solution, followed by either 0.4% diethylamine/100 mM NaCl for soluble Aβ levels or cold formic acid for the isolation of total Aβ. After neutralization, the samples were diluted and analyzed for Aβ40 and Aβ42 using commercially available kits (BIOSOURCE International). Each hemisphere was analyzed in triplicate and the mean values±SEM reported. Western blot analyses were performed on all fractions using urea gels for Aβ species analyses. Aβ was detected using 6E10 (BIOSOURCE International) and Enhanced Chemiluminenscence (Amersham).
(§5) Cerebral Aβ Content. Hemi-brain samples were homogenized in a buffered sucrose solution, followed by either 0.4% diethylamine/100 mM NaCl for soluble Aβ levels or cold formic acid for the isolation of total Aβ [22]. After neutralization the samples were diluted and analyzed for Aβ40 and Aβ42 using commercially available kits (BIOSOURCE International). Each hemisphere was analyzed in triplicate with the mean±SEM reported. Plasma was diluted and run directly on the ELISA.

[13] = system: TgCRND8 mice; test: Cerebral amyloid plaque burden (anti-Aβ immunostaining, image analysis); assay type: in vivo, mouse
Description: Cerebral amyloid burden. Brains were removed and one hemisphere was fixed in 4% paraformaldehyde and embedded in paraffin wax in the mid sagittal plane. To generate sets of systematic uniform random sections, 5 μm serial sections were collected across the entire hemisphere. Sets of sections at 50 μm intervals were used for analyses (10-14 sections/set). Plaques were identified after antigen retrieval with formic acid, and incubation with primary anti-Aβ antibody (Dako M-0872), followed by secondary antibody (Dako StreptABCcomplex/horseradish kit). End products were visualized with DAB and were counter-stained with luxol fast blue. Amyloid plaque burden was assessed with Leco IA-3001 image analysis software interfaced with Leica microscope and Hitachi KP-M1U CCD video camera. Openlab imaging software (Improvision, Lexington, Mass.) was then used to convert micrographs to binary images for plaque number and plaque area determinations. Vascular amyloid burden was defined as amyloid originating from or surrounding blood vessels and was analysed similarly.

[14] = biological target: T2, Aβ42 (Homo sapiens, UniProt P05067); test: Plasma Aβ42 levels; assay type: in vivo, mouse; set-up: from tissue; host or cells: plasma of TgCRND8 transgenic mice; conditions: TgCRND8 mice following 28 days of therapy at five months of age
Description: as §4, §5
Target sequence in this assay (P05067 672-713): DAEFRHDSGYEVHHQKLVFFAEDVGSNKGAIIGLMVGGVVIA

[15] = system: TgCRND8 mice; test: Gliosis quantitation (GFAP astrocytes, CD68 microglia); assay type: in vivo, mouse
Description: Gliosis Quantitation. Five randomly selected, evenly spaced, sagittal sections were collected from paraformaldehyde-fixed and frozen hemispheres of treated and control mice. Sections were immunolabelled for astrocytes with anti-rat GFAP IgG2a (Dako; diluted 1:50) and for microglia with anti-rat CD68 IgG2b (Dako; 1:50). Digital images were captured using a Coolsnap digital camera (Photometrics, Tuscon, Ariz.) mounted to a Zeiss, Axioscope 2 Plus microscope. Images were analysed using Openlab 3.08 imaging software (Improvision, Lexington Mass.).

[16] = biological target: T2, Aβ42; test: Cerebral Aβ content: brain Aβ42 (ELISA kit); assay type: in vivo, mouse; set-up: from tissue; host or cells: hemi-brain homogenate of TgCRND8 transgenic mice; conditions: TgCRND8 mice with pre-existing disease; 28 day treatment from 5 months of age
Description: as §4, §5
Target sequence in this assay (P05067 672-713 limits assumed): as the sequence (P05067 672-713) above

[17] = drinking water 10 mg/ml, listed as Epi-2-inosose
[18] = drinking water 10 mg/ml, prophylactic from 6 weeks until six months of age
[19] = TgCRND8 mice, 4-month Prophylactic (oral from 6 weeks to 4 months of age)
[20] = TgCRND8 mice, 6-month Prophylactic (oral from 6 weeks to 6 months of age)
[21] = TgCRND8 mice, oral treatment for 28 days (1 month) from 5 months of age, analysed at 6 months
[22] = six month old TgCRND8 mice, 28 days of oral treatment beginning at five months of age

O[C@H]1[C@H](O)[C@@H](O)[C@H](O)[C@@H](O)[C@H]1O [myo-cyclohexanehexol, 1,2,3,5/4,6-(myo-)cyclohexanehexol]
toxicity [1]: no toxicity in humans or animals
benefit in pilot in vivo studies [2]: no significant benefit
effectiveness in prior in vitro studies [3]: only weakly effective

OC1C(O)C(O)C(O)C(O)C1O (stereo not drawn) [chiro-inositol, chiro-cyclohexanehexol, reference compound]
activity against synthetic Aβ42 neurotoxicity [4]: inactive

epi-2-inosose
open field test: rearing, grooming, walking, pausing (activity levels) [5]: indistinguishable; also recorded: does not affect activity levels
Kaplan Meier cumulative survival ([6]; drinking water 10 mg/ml): increased survival
improvement of survival ([6]; prophylactic treatment to six months of age, vs untreated): 50%
serum biochemistry: organ function ([7]; Tg and non-Tg mice treated): normal kidney, heart, liver and pancreas function
ALP ([7]; serum, Treated TgCRND8): 73 ± 5 U/L
ALT ([7]; serum, Treated TgCRND8): 30 ± 3 U/L
Albumin ([7]; serum, Treated TgCRND8): 32 ± 2 g/L
Bilirubin ([7]; serum, Treated TgCRND8): 1.8 ± 0.15 µmol/L
Creatine ([7]; serum, Treated TgCRND8): 15.9 ± 2 µmol/L
Globulin ([7]; serum, Treated TgCRND8): 18 ± 2 g/L
Glucose ([7]; serum, Treated TgCRND8): 12 ± 0.6 mmol/L
Total Protein ([7]; serum, Treated TgCRND8): 49 ± 0.7 g/L
Urea ([7]; serum, Treated TgCRND8): 8.6 ± 0.4 mmol/L
survival, weight, fur condition, cage behaviour [8]: no effect on survival, weight, fur condition, or cage behaviour of wild type mice
Synaptophysin reactivity / levels ([9]; 6 month prophylactic and treatment paradigms): significantly increased
increase in synaptophysin reactivity in the hippocampus ([9]; delayed treatment study): 15%
increase in synaptophysin reactivity in the hippocampus ([9]; prophylactic study): 33%
Visual acuity (cued version of the Morris Water Maze test) [10]: not altered by treatment
spatial memory / cognition compared to untreated TgCRND8 mice ([11]; drinking water 10 mg/ml): significantly better than untreated TgCRND8 littermates
spatial memory compared to non-Tg littermates ([11]; drinking water 10 mg/ml): not significantly different from non-Tg littermates
spatial memory / cognition compared to untreated TgCRND8 mice [11, 17]: significantly improved cognition
spatial memory compared to non-Tg littermates [11, 17]: not significantly different from treated nTg littermates
spatial learning compared to non-Tg littermates [11, 18]: approached that of non-Tg littermates
spatial learning compared to untreated TgCRND8 littermates [11, 18]: better cognitive function compared to their untreated TgCRND8 littermates
spatial learning compared to non-Tg littermates ([11]; drinking water 10 mg/ml, prophylactic from 6 weeks until six months of age, listed as Epi-2-inosose): different from non-Tg littermates on all days of testing
effect on non-Tg littermate performance ([11]; non-Tg littermates, drinking water 10 mg/ml): no effect on non-Tg littermate performance
effect on non-Tg littermate performance ([11]; non-Tg littermates, drinking water 10 mg/ml, listed as Epi-2-inosose): no effect on non-Tg littermate behaviour
effect on cognitive performance of non-Tg mice ([11]; non-Tg mice, prophylactic administration): no effect on the cognitive performance of non-Tg mice

1,2,3,4,5/6-(epi-)cyclohexanehexol [epi-cyclohexanehexol]
effect on brain Aβ40 levels [12]: no significant impact
Kaplan Meier cumulative survival [6]: did not significantly improve survival
amyloid (plaque) burden, immunostaining ([13]; TgCRND8 mice at six months of age, hippocampus and cerebral cortex): modest effect on amyloid burden
plaque burden (percent area of the brain covered with plaques, plaque number) ([13]; TgCRND8 mice with pre-existing disease, one month treatment from 5 months of age): no significant impact
Mean Plaque Size [13, 19]: 95 ± 43 μm^2
Total Plaque Area [13, 19]: 65042 ± 5199 μm^2
Mean Plaque Size [13, 20]: 370 ± 9 μm^2
Total Plaque Area [13, 20]: 380456 ± 13498 μm^2
Mean Plaque Size [13, 21]: 346 ± 6 μm^2
Total Plaque Area [13, 21]: 459706 ± 49966 μm^2
Total Plaque Count ([13]; TgCRND8 mice, oral treatment for 28 days from 5 months of age, analysed at 6 months): 1342 ± 114
Plasma Aβ42 levels [14]: 1079 ± 79 pg/mL
percent brain area covered with microgliosis ([15]; TgCRND8 mice): decreased the percent brain area covered with microgliosis
astrogliosis / gliosis, anti-GFAP immunostaining ([15]; TgCRND8 mice at six months of age): decrease in astrogliosis
percent brain area covered in astrogliosis ([15]; TgCRND8 mice, 4- and 6-months of age): decreased the percent brain area covered in astrogliosis at both 4- and 6-months of age
effect on brain Aβ42 levels [16]: no significant impact
activity against synthetic Aβ42 neurotoxicity [4]: protects neurons from synthetic Aβ42 cytotoxicity
Non-Tg littermate behaviour under treatment ([11]; non-Tg littermates, Morris Water Maze): not affected
cognition compared to non-Tg mice ([11]; prophylactic treatment, four months of age): significantly different from treated and untreated non-Tg mice
cognition compared to non-Tg littermates ([11]; prophylactic treatment, six months of age): approached that of non-Tg littermates
spatial reference memory performance compared to non-Tg littermates [11, 22]: significantly poorer than the performance of their non-Tg littermates; also recorded: remained impaired with respect to non-Tg littermates
spatial reference memory performance compared to untreated TgCRND8 littermates [11, 22]: not significantly different from that of untreated TgCRND8 littermates

From US20070197453A1, “Compositions and methods for treatment of disorders of protein aggregation” (priority 2006, published 2007)
